Experiment [1] has as its target T1, Atrial natriuretic peptide receptor 1 (Homo sapiens, UniProt P16066).
T1 sequence (P16066 whole entry): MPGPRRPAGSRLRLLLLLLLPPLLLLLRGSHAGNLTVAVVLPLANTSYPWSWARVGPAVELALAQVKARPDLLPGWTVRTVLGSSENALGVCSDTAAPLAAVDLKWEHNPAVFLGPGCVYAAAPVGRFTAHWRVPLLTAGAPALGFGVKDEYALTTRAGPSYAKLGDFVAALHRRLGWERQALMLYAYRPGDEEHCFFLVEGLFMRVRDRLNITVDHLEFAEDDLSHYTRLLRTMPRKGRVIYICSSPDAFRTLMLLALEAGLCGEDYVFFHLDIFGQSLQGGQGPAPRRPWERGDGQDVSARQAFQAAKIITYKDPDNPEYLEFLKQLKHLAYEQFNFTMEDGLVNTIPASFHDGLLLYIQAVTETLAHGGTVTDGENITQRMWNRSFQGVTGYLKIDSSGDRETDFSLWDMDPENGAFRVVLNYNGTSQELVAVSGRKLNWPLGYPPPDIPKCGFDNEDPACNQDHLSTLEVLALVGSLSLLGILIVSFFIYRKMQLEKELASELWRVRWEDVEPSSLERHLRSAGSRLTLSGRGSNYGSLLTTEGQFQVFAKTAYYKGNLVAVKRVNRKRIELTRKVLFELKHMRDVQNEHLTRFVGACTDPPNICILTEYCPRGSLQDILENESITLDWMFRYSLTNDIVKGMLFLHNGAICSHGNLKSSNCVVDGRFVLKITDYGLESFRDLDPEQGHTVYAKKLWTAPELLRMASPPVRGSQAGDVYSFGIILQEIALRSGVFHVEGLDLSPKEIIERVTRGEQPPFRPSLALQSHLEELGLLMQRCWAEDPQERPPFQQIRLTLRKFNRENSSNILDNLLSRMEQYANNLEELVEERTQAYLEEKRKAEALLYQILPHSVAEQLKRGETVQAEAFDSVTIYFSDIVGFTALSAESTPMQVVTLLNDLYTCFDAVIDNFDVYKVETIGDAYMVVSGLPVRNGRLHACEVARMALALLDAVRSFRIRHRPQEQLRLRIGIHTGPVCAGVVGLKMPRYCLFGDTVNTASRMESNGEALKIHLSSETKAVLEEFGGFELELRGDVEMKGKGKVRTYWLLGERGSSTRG
Put plainly: Displacement of [125I]- ANP from the Atrial natriuretic peptide receptor A. It counts as tissue-based, Cardiac atrium.

The target in experiment [2] is T2, Atrial natriuretic peptide receptor 3 (Homo sapiens, UniProt P17342).
T2 sequence (P17342 whole entry): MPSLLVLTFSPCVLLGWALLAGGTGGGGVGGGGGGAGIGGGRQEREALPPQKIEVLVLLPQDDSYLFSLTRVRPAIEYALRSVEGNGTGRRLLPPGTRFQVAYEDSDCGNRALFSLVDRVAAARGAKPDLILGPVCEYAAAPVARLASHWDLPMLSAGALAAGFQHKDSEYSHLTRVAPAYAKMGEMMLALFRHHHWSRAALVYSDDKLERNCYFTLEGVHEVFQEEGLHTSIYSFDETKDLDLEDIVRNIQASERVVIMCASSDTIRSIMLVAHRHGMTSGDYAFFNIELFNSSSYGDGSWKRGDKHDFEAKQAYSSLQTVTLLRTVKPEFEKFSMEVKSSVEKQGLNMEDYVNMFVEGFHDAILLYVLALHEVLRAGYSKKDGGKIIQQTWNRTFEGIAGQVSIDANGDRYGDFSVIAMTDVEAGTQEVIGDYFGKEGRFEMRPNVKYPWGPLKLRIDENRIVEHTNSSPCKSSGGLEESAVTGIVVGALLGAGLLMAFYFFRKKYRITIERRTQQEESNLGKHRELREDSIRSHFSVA
The experiment is described as follows: Displacement of [125I]- ANP from the Atrial Natriuretic Peptide Clearance Receptor. Type of experiment: tissue-based, Cardiac atrium. (In general: In a radioligand displacement assay an active substance lowers the binding of a labelled ligand.)

A short description of experiment [3]: Ratio of binding affinity for ANP-CR receptor and ANP-A receptor.

Numbered stars: 1 amine (or outer) side, 2 acyl side, 3 side chain; on linkers, the order of the positions; unused ones are H or OH. Square brackets hold non-standard residues; d marks the D form. Peptide text beside a SMILES is read from it. * marks the point of attachment. NH(2S-methylbutyl) = CC[C@H](C)CN*; 2Naphthoyl = O=C(c1ccc2ccccc2c1)*; X1 = O=C(Cc1ccc(N[*:1])cc1)[*:2]; PhAc = O=C(Cc1ccccc1)*; X2 = CCC[C@H](C)CN* Bounds are passed on as bounds.

What is called Ki is the equilibrium dissociation constant of an inhibitor or competing ligand from its target. With `CC[C@H](C)[C@@H]1NC(=O)[C@H](CCCN=C(N)N)NC(=O)[C@H](C)NC(=O)[C@H]([C@@H](C)CC)NC(=O)[C@H](CCCN=C(N)N)NC(=O)CNC(=O)CNC(=O)[C@H](Cc2ccccc2)NC(=O)[C@H](N)CSSC[C@H](C(=O)O)NC(=O)CNC(=O)[C@H](CC(C)C)NC(=O)CNC(=O)[C@H](CO)NC(=O)[C@H](CCC(N)=O)NC(=O)[C@H](C)NC(=O)CNC1=O`, the inhibitory constant (Ki) in experiment [1] and in experiment [2] was 87 nM in each case.

Consider `CC[C@H](C)[C@@H]1NC(=O)[C@H](CCCN=C(N)N)NC(=O)[C@H](CC(=O)O)NC(=O)[C@H]([C@@H](C)CC)NC(=O)[C@H](CCCN=C(N)N)NC(=O)CNC(=O)CNC(=O)[C@H](Cc2ccccc2)NC(=O)[C@H](NC(=O)[C@H](CO)NC(=O)[C@H](CO)NC(=O)[C@@H](N)CCCN=C(N)N)CSSC[C@H](C(=O)O)NC(=O)[C@H](C)NC(=O)CNC1=O`, for which the Ki in experiment [1] was more than 10 nM. Moreover, the Selectivity in experiment [3] is 6100.

With `CC[C@H](C)CNC(=O)[C@H](C)NC(=O)[C@H](CC(=O)O)NC(=O)[C@@H](NC(=O)[C@H](C)NC(=O)Cc1ccc(NC(=O)c2ccc3ccccc3c2)cc1)[C@@H](C)CC` (2Naphthoyl-[X1]AIDA-{NH(2S-methylbutyl)}), the Ki in experiment [1] and in experiment [2] was 65 nM each time.

In the case of `CCC[C@H](C)CNC(=O)[C@H](CCCN=C(N)N)NC(=O)[C@H](CC(=O)O)NC(=O)[C@@H](NC(=O)[C@H](CCCN=C(N)N)NC(=O)Cc1ccccc1)[C@@H](C)CC` (PhAc-RIDR-X2), the inhibition constant (Ki) in experiment [1] and in experiment [2] was 539 nM throughout.

`CC[C@H](C)[C@H](NC(=O)[C@H](CCCNC(=N)N)NC(=O)Cc1ccc(NC(=O)c2ccc3ccccc3c2)cc1)C(=O)N[C@@H](CC(=O)O)C(=O)N[C@@H](CCCNC(=N)N)C(N)=O` (2Naphthoyl-[X1]RIDR-NH2): the Ki in experiment [1] and in experiment [2] was 2600 nM in each case.

As for `CC[C@H](C)CNC(=O)[C@H](CCCN=C(N)N)NC(=O)[C@H](CC(=O)O)NC(=O)[C@@H](NC(=O)[C@H](CCCN=C(N)N)NC(=O)Cc1ccc(NC(=O)c2ccc3ccccc3c2)cc1)[C@@H](C)CC` (2Naphthoyl-[X1]RIDR-{NH(2S-methylbutyl)}), the inhibition constant (Ki) in experiment [1] was more than 10 nM; in experiment [2] it was 0.48 nM. Further, the Selectivity in experiment [3] was more than 20000.

Turning to `CC[C@H](C)[C@@H]1NC(=O)[C@H](C)NC(=O)CNC(=O)CNC(=O)[C@H](Cc2ccccc2)NC(=O)[C@H](N)CSSC[C@H](C(=O)O)NC(=O)CNC(=O)[C@H](CC(C)C)NC(=O)CNC(=O)[C@H](CO)NC(=O)[C@H](CCC(N)=O)NC(=O)[C@H](C)NC(=O)CNC(=O)[C@H]([C@@H](C)CC)NC(=O)[C@H](CCCN=C(N)N)NC(=O)[C@H](CC(=O)O)NC1=O`, the Ki in experiment [1] and in experiment [2] was 0.49 nM in each case.

Take `CC[C@H](C)CNC(=O)[C@H](CCCN=C(N)N)NC(=O)[C@H](CC(=O)O)NC(=O)[C@@H](NC(=O)[C@H](C)NC(=O)Cc1ccc(NC(=O)c2ccc3ccccc3c2)cc1)[C@@H](C)CC` (2Naphthoyl-[X1]AIDR-{NH(2S-methylbutyl)}): the inhibition constant Ki in experiment [1] and in experiment [2] was 0.3 nM throughout.

In experiment [2], `CC[C@H](C)[C@@H]1NC(=O)[C@H](CCCNC(=N)N)NC(=O)[C@H](CC(=O)O)NC(=O)[C@H]([C@@H](C)CC)NC(=O)[C@H](CCCNC(=N)N)NC(=O)CNC(=O)CNC(=O)[C@H](Cc2ccccc2)NC(=O)[C@@H](NC(=O)[C@H](CO)NC(=O)[C@H](CO)NC(=O)[C@@H](N)CCCNC(=N)N)CSSC[C@@H](C(=O)O)NC(=O)[C@H](C)NC(=O)CNC1=O` had a Ki of 1.64 nM.

Consider `CCC[C@H](C)CNC(=O)[C@H](CCCNC(=N)N)NC(=O)[C@H](CC(=O)O)NC(=O)[C@@H](NC(=O)[C@H](CCCNC(=N)N)NC(C)=O)[C@@H](C)CC` (Ac-RIDR-X2), for which the inhibitory constant (Ki) in experiment [1] and in experiment [2] was 2900 nM throughout.

As to `CC[C@H](C)CNC(=O)[C@H](CCCN=C(N)N)NC(=O)[C@H](CC(=O)O)NC(=O)[C@H](C)NC(=O)[C@H](CCCN=C(N)N)NC(=O)Cc1ccc(NC(=O)c2ccc3ccccc3c2)cc1` (2Naphthoyl-[X1]RADR-{NH(2S-methylbutyl)}), the inhibitory constant (Ki) in experiment [1] and in experiment [2] was 680 nM each time.

On to `CC[C@H](C)CNC(=O)[C@H](C)NC(=O)[C@H](CC(=O)O)NC(=O)[C@@H](NC(=O)[C@H](CCCN=C(N)N)NC(=O)Cc1ccc(NC(=O)c2ccc3ccccc3c2)cc1)[C@@H](C)CC` (2Naphthoyl-[X1]RIDA-{NH(2S-methylbutyl)}), for which the inhibition constant Ki in experiment [1] and in experiment [2] was 0.4 nM throughout.

Consider `CC[C@H](C)CNC(=O)[C@H](CCCNC(=N)N)NC(=O)[C@H](C)NC(=O)[C@@H](NC(=O)[C@H](CCCNC(=N)N)NC(=O)Cc1ccc(NC(=O)c2ccc3ccccc3c2)cc1)[C@@H](C)CC` (2Naphthoyl-[X1]RIAR-{NH(2S-methylbutyl)}), for which the Ki in experiment [1] and in experiment [2] was 62 nM each time.

Values taken from ChEMBL document CHEMBL1133291, “The discovery of non-basic atrial natriuretic peptide clearance receptor antagonists. Part 1” (Bioorg Med Chem Lett, 2000).
